Test results from patent US6569843B1, “Steroidal sapogenins for the control of coccidiosis in animals” (priority 1999, dated 2003).
Several values for one entry are separate records, joined by “and”; a condition that tells them apart may be missing. Equal values may be shown once.

Legend:
Format in all cases: in vivo
E. acervulina [1] = experiment: 13 day coccidial challenge study, upper intestinal lesion score (Example 3); conditions: day 13
Source text: (§1) Birds were fed a standard corn soybean meal diet and water ad libitum. Birds were placed in 4 foot by 5 foot pens at the rate of 50 birds per pen. On day 6 all birds, except the negative control, were orally challenged with an inoculum comprised of a mixture of E. acervulina, E. maxima and E. tenella. Since each of these three specie of Eimeria produce intestinal lesions in distinctly different regions of the intestinal their effects can be partitioned when scoring the birds. On day 13 all birds were sacrificed by cervical dislocation and the intestines scored for coccidial lesions by the standard Johnson and Reid method.

[2] = system: mixture of E. acervulina, E. maxima and E. tenella; experiment: 8 day coccidial challenge study in broiler chicks, mortality, weight gain, feed efficiency (Example 4)
E. tenella [3] = experiment: 13 day coccidial challenge study, cecal lesion score (Example 3); conditions: day 13
Source text: as §1

E. maxima [4] = experiment: 8 day coccidial challenge study, middle lesion score (Example 4); conditions: day 8
[5] = system: mixture of E. acervulina, E. maxima and E. tenella; experiment: 13 day coccidial challenge study in broiler chicks, weight and feed conversion (Example 3)
Source text: as §1

E. maxima [6] = experiment: 13 day coccidial challenge study, middle intestinal lesion score (Example 3); conditions: day 13
Source text: as §1

E. acervulina [7] = experiment: 8 day coccidial challenge study, upper lesion score (Example 4); conditions: day 8
E. tenella [8] = experiment: 8 day coccidial challenge study, cecal lesion score (Example 4); conditions: day 8
[9] = system: mixed culture of E. acervulina, E. maxima and E. tenella; experiment: 14 day coccidial challenge study, steroidal sapogenin and antibiotic compatibility in chicks (Example 5); conditions: SS at 3.3 ppm where included, antibiotic doses not given; for Lesion Scores, Cecal / Lesion Scores, Middle / Lesion Scores, Upper: day 14

Compound: CC[C@@H](C(=O)[C@@H](C)[C@@H](O)[C@H](C)[C@@H]1O[C@@H]([C@@H](CC)C(=O)O)CC[C@@H]1C)[C@H]1O[C@]2(C=C[C@@H](O)[C@]3(CC[C@@](C)([C@H]4CC[C@](O)(CC)[C@H](C)O4)O3)O2)[C@H](C)C[C@@H]1C [Salinomycin]
- Average intestinal lesion score, Upper, acervulina (E. acervulina [1]; 60 g/ton): 0.76
- Feed/Gain ([2]; 60 gm/ton): 1.8473 cd
- Mortality, % ([2]; 60 gm/ton): 6.67 a %
- Weight Gain, gm ([2]; 60 gm/ton): 269.67 d gm
- Average intestinal lesion score, Cecal, tenella (E. tenella [3]; 60 g/ton): 0.68
- Lesion Scores, Middle, E. maxima (E. maxima [4]; 60 gm/ton): 2.9000 bc
- Feed/Gain ([5]; 60 g/ton): 1.624
- Weight, gm (average bird weight) ([5]; 60 g/ton): 246.3 gm
- Average intestinal lesion score, Middle, maxima (E. maxima [6]; 60 g/ton): 1.22
- Lesion Scores, Upper, E. acervulina (E. acervulina [7]; 60 gm/ton): 2.1333 b
- Lesion Scores, Cecal, E. tenella (E. tenella [8]; 60 gm/ton): 2.9000 bc

Compound: CO[C@@H]1[C@@H](OC)[C@H](C)[C@@](O)(CC(=O)O)O[C@H]1[C@H](C)[C@H]1O[C@@]2(CC[C@@](C)([C@H]3CC[C@@](C)([C@@H]4O[C@@H]([C@H]5O[C@](C)(O)[C@H](C)C[C@@H]5C)C[C@@H]4O[C@@H]4C[C@H](OC)[C@@H](OC)[C@H](C)O4)O3)O2)C[C@H](O)[C@H]1C [Maduramicin]
- Feed/Gain ([2]; 5 ppm, two different sources): 1.8503 cd and 1.8463 cd
- Mortality, % ([2]; 5 ppm, two different sources): 6.67 a % and 0 a %
- Weight Gain, gm ([2]; 5 ppm, two different sources): 266.67 d gm and 269.33 d gm
- Lesion Scores, Middle, E. maxima (E. maxima [4]; 5 ppm, two different sources): 2.2667 b and 2.3000 b
- Lesion Scores, Upper, E. acervulina (E. acervulina [7]; 5 ppm, two different sources): 2.1000 b and 2.3667 b
- Lesion Scores, Cecal, E. tenella (E. tenella [8]; 5 ppm, two different sources): 2.6000 bc and 2.3333 bc

Compound: Virginiamycin
- Feed/Gain [9]: 1.891
- Weight, gm [9]: 256.3 gm
- Lesion Scores, Cecal [9]: 1.17
- Lesion Scores, Middle [9]: 1.58
- Lesion Scores, Upper [9]: 1.17

Compound: CC[C@@]1([C@@H]2O[C@@H]([C@H]3O[C@@](O)(CO)[C@H](C)C[C@@H]3C)C[C@@H]2C)CC[C@H]([C@]2(C)CC[C@]3(C[C@H](O)[C@@H](C)[C@@H]([C@@H](C)[C@@H](OC)[C@H](C)C(=O)O)O3)O2)O1 [Monensin]
- Average intestinal lesion score, Upper, acervulina (E. acervulina [1]; 100 g/ton): 1.40
- Feed/Gain ([2]; 90 gm/ton): 1.9033 cd
- Mortality, % ([2]; 90 gm/ton): 3.33 a %
- Weight Gain, gm ([2]; 90 gm/ton): 258.67 d gm
- Average intestinal lesion score, Cecal, tenella (E. tenella [3]; 100 g/ton): 1.64
- Lesion Scores, Middle, E. maxima (E. maxima [4]; 90 gm/ton): 2.4333 bc
- Feed/Gain ([5]; 100 g/ton): 1.843
- Weight, gm (average bird weight) ([5]; 100 g/ton): 233.0 gm
- Average intestinal lesion score, Middle, maxima (E. maxima [6]; 100 g/ton): 1.58
- Lesion Scores, Upper, E. acervulina (E. acervulina [7]; 90 gm/ton): 1.9667 b
- Lesion Scores, Cecal, E. tenella (E. tenella [8]; 90 gm/ton): 2.9667 bc

Compound: Bacitracin Zinc
- Feed/Gain [9]: 1.833
- Weight, gm [9]: 259.7 gm
- Lesion Scores, Cecal [9]: 1.50
- Lesion Scores, Middle [9]: 2.08
- Lesion Scores, Upper [9]: 1.50
